# Target: T1, chimeric human H3 receptor (Homo sapiens, UniProt Q9Y5N1)
# T1 construct: rat Galpha-i2 (Gnai2, rat); made in house; host or cells: Sf9 insect cells (baculovirus); P2 membranes
# Test: Chimeric human H3 receptor screening GTP binding assay (inhibition of histamine-stimulated GTP-gamma35S binding, Example 8)
# Type: biochemical
# Conditions: 1 h; assay described in Example 8; symbol "!" in column headed Ki; read-out: Ki ("!": percent inhibition of agonist-induced GTP-gammaS binding to H3)
# In short: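 Sf9 membranes co-expressing chimeric human H3 receptor and heterotrimeric G-protein (35 μg protein) incubated 60 min at room temperature with 4 μM compound, 1 μM histamine and 125 pM GTP-gamma35S in pH 7.4 buffer with 10 μM GDP. Filter-bound radioactivity, nonspecific (10 μM GTP-gammaS) subtracted, reported as % inhibition of histamine signal.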
# T1 sequence (Q9Y5N1 with tags, fused parts or gaps): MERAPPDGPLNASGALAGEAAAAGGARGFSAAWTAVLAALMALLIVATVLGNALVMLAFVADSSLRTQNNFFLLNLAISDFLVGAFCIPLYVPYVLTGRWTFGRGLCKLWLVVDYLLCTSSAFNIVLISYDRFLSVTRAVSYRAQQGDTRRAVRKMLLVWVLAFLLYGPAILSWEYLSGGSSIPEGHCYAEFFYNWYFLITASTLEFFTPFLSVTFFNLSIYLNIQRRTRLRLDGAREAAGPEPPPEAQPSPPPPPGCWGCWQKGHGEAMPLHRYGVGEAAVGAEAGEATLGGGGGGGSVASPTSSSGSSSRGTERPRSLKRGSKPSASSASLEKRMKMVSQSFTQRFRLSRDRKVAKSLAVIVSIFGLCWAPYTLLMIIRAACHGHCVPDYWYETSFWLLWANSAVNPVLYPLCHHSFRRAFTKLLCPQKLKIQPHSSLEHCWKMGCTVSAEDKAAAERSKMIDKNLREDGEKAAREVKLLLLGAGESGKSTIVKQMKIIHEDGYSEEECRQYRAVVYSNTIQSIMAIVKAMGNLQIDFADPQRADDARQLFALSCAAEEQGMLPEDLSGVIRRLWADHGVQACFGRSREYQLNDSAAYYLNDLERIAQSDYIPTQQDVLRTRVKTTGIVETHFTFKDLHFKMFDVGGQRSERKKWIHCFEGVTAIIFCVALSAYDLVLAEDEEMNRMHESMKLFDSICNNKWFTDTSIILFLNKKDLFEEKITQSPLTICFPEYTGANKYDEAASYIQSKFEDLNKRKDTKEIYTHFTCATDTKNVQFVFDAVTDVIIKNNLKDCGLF
row,Compound,inhibition at 4 µM [%]
1,"CCCSc1ncccc1C(=O)N1CCc2cnc(N3CCN(C4CCC4)CC3)nc2CC1 [Compound 541, 2-(4-cyclobutylpiperazin-1-yl)-7-{[2-(propylthio)pyridin-3-yl]carbonyl}-6,7,8,9-tetrahydro-5H-pyrimido[4,5-d]azepine]",≥ 90
2,"COc1ccc(C(=O)N2CCc3cnc(N4CCN(C5CCC5)CC4)nc3CC2)c(OC)n1 [Compound 542, 2-(4-cyclobutylpiperazin-1-yl)-7-[(2,6-dimethoxypyridin-3-yl)carbonyl]-6,7,8,9-tetrahydro-5H-pyrimido[4,5-d]azepine]",≥ 90
3,"CCOc1ncccc1C(=O)N1CCc2cnc(N3CCN(C4CCC4)CC3)nc2CC1 [Compound 543, 2-(4-cyclobutylpiperazin-1-yl)-7-[(2-ethoxypyridin-3-yl)carbonyl]-6,7,8,9-tetrahydro-5H-pyrimido[4,5-d]azepine]",≥ 90
4,"COc1ncc(Cl)cc1C(=O)N1CCc2cnc(N3CCN(C4CCC4)CC3)nc2CC1 [Compound 544, 7-[(5-chloro-2-methoxypyridin-3-yl)carbonyl]-2-(4-cyclobutylpiperazin-1-yl)-6,7,8,9-tetrahydro-5H-pyrimido[4,5-d]azepine]",≥ 90
5,"CCCOc1ncccc1C(=O)N1CCc2cnc(N3CCN(C4CCC4)CC3)nc2CC1 [Compound 545, 2-(4-cyclobutylpiperazin-1-yl)-7-[(2-propoxypyridin-3-yl)carbonyl]-6,7,8,9-tetrahydro-5H-pyrimido[4,5-d]azepine]",≥ 90
6,"CC(C)Oc1ncccc1C(=O)N1CCc2cnc(N3CCN(C4CCC4)CC3)nc2CC1 [Compound 546, 2-(4-cyclobutylpiperazin-1-yl)-7-[(2-isopropoxypyridin-3-yl)carbonyl]-6,7,8,9-tetrahydro-5H-pyrimido[4,5-d]azepine]",≥ 90
7,"O=C(/C=C/c1ccccc1F)N1CCc2cnc(N3CCN(C4CCC4)CC3)nc2CC1 [Compound 547, 2-(4-cyclobutylpiperazin-1-yl)-7-[(2E)-3-(2-fluorophenyl)prop-2-enoyl]-6,7,8,9-tetrahydro-5H-pyrimido[4,5-d]azepine]",≥ 90
8,"O=C(/C=C/c1ccc(F)cc1)N1CCc2cnc(N3CCN(C4CCC4)CC3)nc2CC1 [Compound 548, 2-(4-cyclobutylpiperazin-1-yl)-7-[(2E)-3-(4-fluorophenyl)prop-2-enoyl]-6,7,8,9-tetrahydro-5H-pyrimido[4,5-d]azepine]",≥ 90
9,"O=C(/C=C/c1ccc(Cl)cc1)N1CCc2cnc(N3CCN(C4CCC4)CC3)nc2CC1 [Compound 549, 7-[(2E)-3-(4-chlorophenyl)prop-2-enoyl]-2-(4-cyclobutylpiperazin-1-yl)-6,7,8,9-tetrahydro-5H-pyrimido[4,5-d]azepine]",≥ 90
10,"O=C(/C=C/c1ccc(C(F)(F)F)cc1)N1CCc2cnc(N3CCN(C4CCC4)CC3)nc2CC1 [Compound 550, 2-(4-cyclobutylpiperazin-1-yl)-7-{(2E)-3-[4-(trifluoromethyl)phenyl]prop-2-enoyl}-6,7,8,9-tetrahydro-5H-pyrimido[4,5-d]azepine]",≥ 90
11,"O=C(/C=C/c1ccc(Cl)c(Cl)c1)N1CCc2cnc(N3CCN(C4CCC4)CC3)nc2CC1 [Compound 551, 2-(4-cyclobutylpiperazin-1-yl)-7-[(2E)-3-(3,4-dichlorophenyl)prop-2-enoyl]-6,7,8,9-tetrahydro-5H-pyrimido[4,5-d]azepine]",≥ 90
12,"O=C(/C=C/c1cccc(Cl)c1)N1CCc2cnc(N3CCN(C4CCC4)CC3)nc2CC1 [Compound 552, 7-[(2E)-3-(3-chlorophenyl)prop-2-enoyl]-2-(4-cyclobutylpiperazin-1-yl)-6,7,8,9-tetrahydro-5H-pyrimido[4,5-d]azepine]",≥ 90
13,"O=C(/C=C/c1cccc(F)c1)N1CCc2cnc(N3CCN(C4CCC4)CC3)nc2CC1 [Compound 553, 2-(4-cyclobutylpiperazin-1-yl)-7-[(2E)-3-(3-fluorophenyl)prop-2-enoyl]-6,7,8,9-tetrahydro-5H-pyrimido[4,5-d]azepine]",≥ 90
14,"O=C(/C=C/c1cccc(F)c1F)N1CCc2cnc(N3CCN(C4CCC4)CC3)nc2CC1 [Compound 554, 2-(4-cyclobutylpiperazin-1-yl)-7-[(2E)-3-(2,3-difluorophenyl)prop-2-enoyl]-6,7,8,9-tetrahydro-5H-pyrimido[4,5-d]azepine]",≥ 90
15,"O=C(/C=C/c1cccc(C(F)(F)F)c1)N1CCc2cnc(N3CCN(C4CCC4)CC3)nc2CC1 [Compound 555, 2-(4-cyclobutylpiperazin-1-yl)-7-{(2E)-3-[3-(trifluoromethyl)phenyl]prop-2-enoyl}-6,7,8,9-tetrahydro-5H-pyrimido[4,5-d]azepine]",≥ 90
16,"O=C(/C=C/c1ccc(-c2ccccc2)cc1)N1CCc2cnc(N3CCN(C4CCC4)CC3)nc2CC1 [Compound 556, 7-[(2E)-3-biphenyl-4-ylprop-2-enoyl]-2-(4-cyclobutylpiperazin-1-yl)-6,7,8,9-tetrahydro-5H-pyrimido[4,5-d]azepine]",≥ 90
17,"Cc1ccc(/C=C/C(=O)N2CCc3cnc(N4CCN(C5CCC5)CC4)nc3CC2)cc1 [Compound 557, 2-(4-cyclobutylpiperazin-1-yl)-7-[(2E)-3-(4-methylphenyl)prop-2-enoyl]-6,7,8,9-tetrahydro-5H-pyrimido[4,5-d]azepine]",≥ 90
18,"COc1ccc(/C=C/C(=O)N2CCc3cnc(N4CCN(C5CCC5)CC4)nc3CC2)cc1 [Compound 558, 2-(4-cyclobutylpiperazin-1-yl)-7-[(2E)-3-(4-methoxyphenyl)prop-2-enoyl]-6,7,8,9-tetrahydro-5H-pyrimido[4,5-d]azepine]",≥ 90
19,"CC(C)c1ccc(/C=C/C(=O)N2CCc3cnc(N4CCN(C5CCC5)CC4)nc3CC2)cc1 [Compound 559, 2-(4-cyclobutylpiperazin-1-yl)-7-[(2E)-3-(4-isopropylphenyl)prop-2-enoyl]-6,7,8,9-tetrahydro-5H-pyrimido[4,5-d]azepine]",≥ 90
20,"COc1ccc(/C=C/C(=O)N2CCc3cnc(N4CCN(C5CCC5)CC4)nc3CC2)cc1OC [Compound 560, 2-(4-cyclobutylpiperazin-1-yl)-7-[(2E)-3-(3,4-dimethoxyphenyl)prop-2-enoyl]-6,7,8,9-tetrahydro-5H-pyrimido[4,5-d]azepine]",≥ 90
21,"COc1cc(/C=C/C(=O)N2CCc3cnc(N4CCN(C5CCC5)CC4)nc3CC2)ccc1OCc1ccccc1 [Compound 561, 7-{(2E)-3-[4-(benzyloxy)-3-methoxyphenyl]prop-2-enoyl}-2-(4-cyclobutylpiperazin-1-yl)-6,7,8,9-tetrahydro-5H-pyrimido[4,5-d]azepine]",≥ 90
22,"O=C(/C=C/c1ccc(OCc2ccc(F)cc2)cc1)N1CCc2cnc(N3CCN(C4CCC4)CC3)nc2CC1 [Compound 562, 2-(4-cyclobutylpiperazin-1-yl)-7-[(2E)-3-{4-[(4-fluorobenzyl)oxy]phenyl}prop-2-enoyl]-6,7,8,9-tetrahydro-5H-pyrimido[4,5-d]azepine]",≥ 90
23,"Cc1cccc(/C=C/C(=O)N2CCc3cnc(N4CCN(C5CCC5)CC4)nc3CC2)c1 [Compound 563, 2-(4-cyclobutylpiperazin-1-yl)-7-[(2E)-3-(3-methylphenyl)prop-2-enoyl]-6,7,8,9-tetrahydro-5H-pyrimido[4,5-d]azepine]",≥ 90

# From patent US20080051387A1, “TETRAHYDROPYRIDO[3,4-D]PYRIMIDINES AND RELATED ANALOGUES” (priority 2006, published 2008)
